Source: patent US20250281462A1, “THERAPEUTICALLY EFFECTIVE ORAL ADMINISTRATION OF A 2 ARYLBENZIMIDAZOLE” (Tranquis Therapeutics, Inc., priority 2021, published 2025)
Read-outs that look alike come from different tables or passages of the source.

Experiment: Plasma concentrations of TQS-168 and TQS-621 after single oral dose 50 mg/kg in mice, three formulations
Assay type: in vivo
Conditions: male, C57BL/6, mouse, plasma, po, 50 mg/kg; for Cmax / AUC(0-t) / Tmax / AUC(0-inf) / half-life: mice plasma; for Cmax: read-out: Cmax; for Tmax: read-out: tmax
Protocol: In a second experiment, mice were administered 50 mg/kg TQS-168 by oral gavage. For Group 1, TQS-168 was prepared at a concentration of 5.0 mg/mL in a suspension with […] in PBS. For Group 2, TQS-168 was prepared at a concentration of 5.0 mg/mL as a solution in 10 polyethylene glycol (PEG) 400|30 Kleptose (Roquete)|60% water.
Plasma exposures for Group 1 mice (ng/mL) are presented in Table 2 and for Group 2 mice in Table 3.
C57BL/6 male mice were administered a single dose of TQS-168 at 50 mg/kg using one of three formulations: Group 1-5.0 mg/ml suspension in 0.5% methylcellulose in PBS; Group 2-5.0 mg/ml solution in PEG400 (Fluka) 10%|Kleptose (Roquette) 30%|sterile water 60%; Group 3-5.0 mg/ml suspension in Labrafil M 1944 CS (Gattefosse) 30%|Masine CC (Gattefosse) 5%|Miglyol 812N 10%|sterile water 55%.
Plasma concentrations of TQS-168 and TQS-621 were measured overtime.

[1] = TQS-168 50 mg/kg p.o., Group 1 (suspension, 0.5% methylcellulose in PBS), individual mouse
[2] = TQS-168 50 mg/kg p.o., Group 1 (suspension, 0.5% methylcellulose in PBS), mean
[3] = TQS-168 50 mg/kg p.o., Group 2 (solution, PEG400/Kleptose/water), individual mouse
[4] = TQS-168 50 mg/kg p.o., Group 2 (solution, PEG400/Kleptose/water), mean
[5] = TQS-168 50 mg/kg p.o., Group 3 (suspension, Labrafil/Masine/Miglyol/water), individual mouse
[6] = TQS-168 50 mg/kg p.o., Group 3 (suspension, Labrafil/Masine/Miglyol/water), mean
[7] = mice, 50 mg/kg p.o., Group 1 (suspension, methylcellulose in PBS), individual mouse, read-out: Calculated Concentration in plasma
[8] = mice, 50 mg/kg p.o., Group 1 (suspension, methylcellulose in PBS), mean, read-out: Calculated Concentration in plasma
[9] = mice, 50 mg/kg p.o., Group 2 (solution, PEG 400/Kleptose/water), individual mouse, read-out: Calculated Concentration in plasma
[10] = mice, 50 mg/kg p.o., Group 2 (solution, PEG 400/Kleptose/water), mean, read-out: Calculated Concentration in plasma

Question: What does the source list for `CC(C)(C)c1ccc(-c2nc3ccccc3[nH]2)cc1` [TQS-168, 2-(4-tert-butylphenyl)-1H-benzimidazole]?
Answer: Cmax (50 mg/kg p.o., Group 1 (suspension)): 4.5 µM; Cmax (50 mg/kg p.o., Group 2 (solution)): 8.54 µM; Cmax (50 mg/kg p.o., Group 3 (suspension)): 2.4 µM; AUC(0-t) [1]: 5040 ng·h/mL; Cmax [1]: 1280 ng/mL; Tmax [1]: 1 h; AUC(0-inf) [2]: 8110 ng·h/mL; AUC(0-t) [2]: 5970 ng·h/mL; half-life [2]: 4.3 h; Cmax [2]: 1120 ng/mL; Tmax [2]: 0.833 h; AUC(0-inf) [3]: 11400 ng·h/mL; AUC(0-t) [3]: 10600 ng·h/mL; half-life [3]: 2.81 h; Cmax [3]: 1950 ng/mL; Tmax [3]: 0.5 h; AUC(0-inf) [4]: 11400 ng·h/mL; AUC(0-t) [4]: 10700 ng·h/mL; half-life [4]: 2.82 h; Cmax [4]: 2140 ng/mL; Tmax [4]: 0.833 h; AUC(0-inf) [5]: 4250 ng·h/mL; AUC(0-t) [5]: 4110 ng·h/mL; half-life [5]: 1.47 h; Cmax [5]: 611 ng/mL; AUC(0-inf) [6]: 4150 ng·h/mL; AUC(0-t) [6]: 3930 ng·h/mL; half-life [6]: 1.71 h; Cmax [6]: 611 ng/mL; Tmax [6]: 3.17 h; concentration at 0.25 h [7]: 586 ng/mL; concentration at 0.25 h [8]: 653 ng/mL; concentration at 0.5 h [8]: 949 ng/mL; concentration at 1 h [7]: 1280 ng/mL; concentration at 1 h [8]: 1100 ng/mL; concentration at 2 h [8]: 776 ng/mL; concentration at 4 h [7]: 435 ng/mL; concentration at 4 h [8]: 435 ng/mL; concentration at 8 h [8]: 446 ng/mL; concentration at 12 h (mice, 50 mg/kg p.o., Group 1 (suspension, methylcellulose in PBS), 12 hr, mean, read-out: Calculated Concentration in plasma): 187 ng/mL; concentration at 0.25 h [9]: 656 ng/mL; concentration at 0.25 h [10]: 900 ng/mL; concentration at 0.5 h [9]: 1950 ng/mL; concentration at 0.5 h [10]: 1960 ng/mL; concentration at 1 h [9]: 1520 ng/mL; concentration at 1 h [10]: 1990 ng/mL; concentration at 2 h [9]: 1810 ng/mL; concentration at 2 h [10]: 1760 ng/mL; concentration at 4 h [9]: 1330 ng/mL; concentration at 4 h [10]: 1200 ng/mL; concentration at 8 h [9]: 374 ng/mL; concentration at 8 h [10]: 427 ng/mL
